Experimental data as given in paper PMC4685510, “A Cell Biologist’s Field Guide to Aurora Kinase Inhibitors” (Frontiers in Oncology, 2015).

What was measured:
RPE1 cells = assay: Cytokinesis assay (live imaging, YFP-α-tubulin; H2B-RFP), RPE1; format: cell-based; details: Homo sapiens, RPE-1; RPE1; cytokinesis failure; read-out: Cytokinesis IC50
[1] = tested on: HeLa, RPE1, and U2OS cells; assay: Cellular proliferation analysis (ATPLite, 24 h); details: HeLa, RPE1, U2OS; 24 h (Figure 4D, Figure S2B)
Aurora B/INCENP^783–918 = molecular target: T1, Aurora B/INCENP^783–918 (Homo sapiens, UniProt Q96GD4); assay: Aurora B/INCENP^783–918 kinase assay (ADP-Glo); format: biochemical
T1 construct: purchased SignalChem

[2] = molecular target: T2, full-length human Aurora A (Homo sapiens, UniProt O14965); assay: Aurora A kinase assay (ADP-Glo, Kemptide substrate)
T2 sequence (O14965 1-403): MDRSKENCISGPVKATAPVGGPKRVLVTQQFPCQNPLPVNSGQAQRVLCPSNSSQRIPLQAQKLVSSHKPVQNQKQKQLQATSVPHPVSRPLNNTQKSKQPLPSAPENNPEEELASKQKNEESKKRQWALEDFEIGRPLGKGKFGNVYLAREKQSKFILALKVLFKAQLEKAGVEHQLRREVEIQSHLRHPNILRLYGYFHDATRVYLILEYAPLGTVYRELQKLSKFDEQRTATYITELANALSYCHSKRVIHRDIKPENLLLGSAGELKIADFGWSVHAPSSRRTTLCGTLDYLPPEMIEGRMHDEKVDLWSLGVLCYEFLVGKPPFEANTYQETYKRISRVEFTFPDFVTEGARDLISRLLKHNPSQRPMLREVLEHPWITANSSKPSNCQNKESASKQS

[3] = molecular target: 363 human kinases (including Aurora A/B/C) (Homo sapiens, UniProt Q16584); assay: biochemical; format: biochemical; details: MLK3/MAP3K11, 500 nM
Description: However, the Aurora A/B selectivity ratios derived from our in vitro and in vivo data can be compared to prioritize inhibitors.

Aurora A = details: ref 57; read-out: Aurora A IC50 (Published); cited from earlier work
[4] = fold difference in potency calculated by dividing Ki values

T1 sequence (Q96GD4 whole entry): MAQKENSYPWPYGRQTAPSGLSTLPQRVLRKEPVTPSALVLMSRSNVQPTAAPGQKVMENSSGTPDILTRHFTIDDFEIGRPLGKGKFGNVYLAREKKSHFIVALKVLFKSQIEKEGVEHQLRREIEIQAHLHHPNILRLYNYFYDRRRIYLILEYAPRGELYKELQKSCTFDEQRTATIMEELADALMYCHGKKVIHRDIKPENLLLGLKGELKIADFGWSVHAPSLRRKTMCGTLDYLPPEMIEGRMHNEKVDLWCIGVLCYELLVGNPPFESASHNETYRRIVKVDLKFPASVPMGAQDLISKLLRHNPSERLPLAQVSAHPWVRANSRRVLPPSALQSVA
T1 sequence (Q9NQS7 783-918 partner limits assumed): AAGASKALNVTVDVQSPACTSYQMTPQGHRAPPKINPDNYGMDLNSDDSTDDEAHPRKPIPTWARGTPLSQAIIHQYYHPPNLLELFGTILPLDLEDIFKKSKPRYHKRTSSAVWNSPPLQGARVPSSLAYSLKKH
Sequence of 363 human kinases (including Aurora A/B/C) (Q16584 whole entry): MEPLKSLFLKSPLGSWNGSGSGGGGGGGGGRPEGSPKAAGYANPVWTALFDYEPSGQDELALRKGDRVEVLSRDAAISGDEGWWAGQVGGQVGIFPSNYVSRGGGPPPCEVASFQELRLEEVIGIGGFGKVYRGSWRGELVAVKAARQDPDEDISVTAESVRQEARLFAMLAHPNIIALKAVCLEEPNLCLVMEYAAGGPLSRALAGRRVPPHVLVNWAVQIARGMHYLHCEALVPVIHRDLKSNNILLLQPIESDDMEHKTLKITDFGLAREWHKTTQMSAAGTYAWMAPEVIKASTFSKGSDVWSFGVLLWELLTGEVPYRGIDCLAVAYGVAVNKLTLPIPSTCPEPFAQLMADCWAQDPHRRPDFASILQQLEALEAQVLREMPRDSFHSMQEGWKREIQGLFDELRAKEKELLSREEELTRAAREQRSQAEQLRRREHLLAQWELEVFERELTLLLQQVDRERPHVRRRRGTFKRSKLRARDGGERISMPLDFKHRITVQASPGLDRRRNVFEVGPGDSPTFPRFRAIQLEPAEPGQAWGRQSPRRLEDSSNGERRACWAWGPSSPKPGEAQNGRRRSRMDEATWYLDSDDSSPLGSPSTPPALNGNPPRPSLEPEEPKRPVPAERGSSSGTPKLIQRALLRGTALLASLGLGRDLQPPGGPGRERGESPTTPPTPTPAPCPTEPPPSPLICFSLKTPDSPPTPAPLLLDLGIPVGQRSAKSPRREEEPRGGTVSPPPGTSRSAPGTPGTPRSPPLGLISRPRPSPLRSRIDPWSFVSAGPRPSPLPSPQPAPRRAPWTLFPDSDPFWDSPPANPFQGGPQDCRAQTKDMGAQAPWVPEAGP

Compound | IC50 (RPE1 cells) [nM] | Toxicity / cytotoxicity (cellular proliferation) [1] | Ki (Aurora B/INCENP^783–918; Aurora B INCENP^783-918 Ki (example dataset, Figure 2D), calculated from the example IC50) [nM] | Ki (Aurora B/INCENP^783–918; Aurora B-INCENP^783–918 Ki Mean ± SD, [ATP] = Km(ATP) (10 μM)) [nM] | IC50 (Aurora B/INCENP^783–918; [ATP] = Km(ATP), example dataset) [nM] | IC50 [2] [nM] | Ki ([2]; Aurora A Ki Mean ± SD, [ATP] = Km(ATP) (35 μM), Ki calculated from IC50 with tight-binding equation) [nM] | Selectivity ratio Aur A versus Aur A-TPX2^1–43 [2, 4] [fold] | Selectivity ratio Aur A versus Aur B-INCENP^783–918 [2, 4] [fold] | % Enzyme Activity (relative to DMSO controls) [3] [%] | remaining activity at 0.5 µM ([3]; read-out: % Enzyme Activity (relative to DMSO controls)) [%] | IC50 (Aurora A) [nM]
CCn1cc(-c2ccnc3[nH]c(-c4cccc(CN(C)C)c4)cc23)c(-c2ccc(NC(=O)N(C)C)cc2)n1 [GSK1070916] | 21 | – | – | – | – | – | – | – | – | – | – | –
O=C(c1cccc(Cl)c1F)N1CCN(Cc2cccc(Nc3nccs3)n2)CC1 [MK-8745] | – | not cytotoxic | 58.8 | 66.8 ± 19.6 | 118 | 0.23 | 0.06 ± 0.004 | 6.3 | 1030 | 92.79 | 94.8 | 0.6
